We go through 15 compounds from patent US10780090B2, “Heteroaryl compounds useful as inhibitors of SUMO activating enzyme” (Millennium Pharmaceuticals, Inc., priority 2014, dated 2020).

Bounds are passed on as bounds.

The target of the assay is recombinant human SAE enzyme (Homo sapiens (Human), UniProt Q9UBT2). Nature of the assay: SAE HTRF enzyme assay. As to conditions: for inhibition at 0.111 µM: read-out: Percent Inhibition. It is filed as biochemical. An outline of the steps: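 First, recombinant human SAE (0.11 nM) transfers Sumo-Flag onto Ubc9-GST using 0.5 μM ATP for 105 min at 24° C. Next, EDTA-containing detection buffer with labelled anti-Flag and anti-GST antibodies is added for 2 h. Finally, FRET is quantified and percent inhibition or IC50 derived.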
Chain of recombinant human SAE enzyme (Q9UBT2 whole entry): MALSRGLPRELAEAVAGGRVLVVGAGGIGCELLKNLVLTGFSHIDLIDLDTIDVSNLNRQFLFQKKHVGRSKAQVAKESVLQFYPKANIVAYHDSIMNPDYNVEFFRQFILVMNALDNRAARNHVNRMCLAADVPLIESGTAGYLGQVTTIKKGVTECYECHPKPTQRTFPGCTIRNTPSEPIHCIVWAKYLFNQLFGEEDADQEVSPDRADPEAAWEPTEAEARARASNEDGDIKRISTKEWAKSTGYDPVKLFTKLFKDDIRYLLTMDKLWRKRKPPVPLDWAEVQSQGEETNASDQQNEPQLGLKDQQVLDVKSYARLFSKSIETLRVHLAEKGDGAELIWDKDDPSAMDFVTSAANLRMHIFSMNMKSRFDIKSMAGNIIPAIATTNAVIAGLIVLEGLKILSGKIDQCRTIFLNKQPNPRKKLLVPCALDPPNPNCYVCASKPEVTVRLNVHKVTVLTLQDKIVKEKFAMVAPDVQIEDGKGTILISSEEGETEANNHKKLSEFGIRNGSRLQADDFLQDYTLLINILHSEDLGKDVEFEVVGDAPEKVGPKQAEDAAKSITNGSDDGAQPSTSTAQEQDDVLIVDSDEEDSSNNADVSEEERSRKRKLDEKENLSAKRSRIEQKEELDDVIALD
Chain of recombinant human SAE enzyme (Q9UBE0 whole entry partner): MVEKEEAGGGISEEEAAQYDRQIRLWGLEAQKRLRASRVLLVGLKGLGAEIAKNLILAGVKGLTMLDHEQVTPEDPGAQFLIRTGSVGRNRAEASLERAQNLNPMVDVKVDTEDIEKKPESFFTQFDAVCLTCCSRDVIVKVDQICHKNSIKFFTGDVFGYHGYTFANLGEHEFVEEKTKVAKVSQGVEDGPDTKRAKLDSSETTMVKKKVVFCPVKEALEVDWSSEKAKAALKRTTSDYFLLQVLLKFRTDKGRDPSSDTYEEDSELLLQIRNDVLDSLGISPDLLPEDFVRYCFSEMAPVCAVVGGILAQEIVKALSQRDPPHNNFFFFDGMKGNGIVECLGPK
(In general: In TR-FRET formats the signal depends on donor and acceptor labels being close together.)

Where [1] appears, read: SAE inhibition at compound concentration 0.111 μM.
Setting [2] is: SAE inhibition, class symbols, legend in nM.

By IC50 is commonly meant the concentration at which inhibition is half-maximal. As for `C[C@@](O)(c1cccc(Cl)c1)c1cc(C(=O)c2cncnc2N[C@@H]2C[C@H](COS(N)(=O)=O)[C@@H](O)C2)sc1Cl` (mixture of isomers) [I-102, [(1R,2S,4R)-4-{[5-({5-Chloro-4-[(1S)-1-(3-chlorophenyl)-1-hydroxyethyl]-2-thienyl}carbonyl)pyrimidin-4-yl]amino}-2-hydroxycyclopentyl]methyl sulfamate and [(1R,2S,4R)-4-{[5-({5-Chloro-4-[(1R)-1-(3-chlorophenyl)-1-hydroxyethyl]-2-thienyl}carbonyl)pyrimidin-4 yl]amino}-2-hydroxycyclopentyl]methyl sulfamate], the “Percent Inhibition” value (Concentration 0.111 μM) stood at 94. Moreover, the IC50 (class symbols A/B/C) was less than 10 nM.

Turning to `Cc1sc(C(=O)c2cncnc2N[C@@H]2C[C@H](COS(N)(=O)=O)[C@@H](O)C2)nc1C1OCCc2ccc(Cl)cc21` (single isomer, unassigned) [I-300b, [(1R,2S,4R)-4-{[5-({4-[(1R)-7-chloro-3,4-dihydro-1H-isochromen-1-yl]-5-methyl-1,3-thiazol-2-yl}carbonyl)pyrimidin-4-yl]amino}-2-hydroxycyclopentyl]methyl sulfamate or [(1R,2S,4R)-4-{[5-({4-[(1S)-7-chloro-3,4-dihydro-1H-isochromen-1-yl]-5-methyl-1,3-thiazol-2-yl}carbonyl)pyrimidin-4-yl]amino}-2-hydroxycyclopentyl]methyl sulfamate], the “Percent Inhibition” value under setting [1] was 101%. The IC50 under setting [2] was less than 10 nM.

As usually defined, the inhibition is the relative decrease from the control value, in per cent. For `CSc1cccc(Cc2csc(C(=O)c3cncnc3N[C@@H]3C[C@H](COS(N)(=O)=O)[C@@H](O)C3)c2)c1` [I-81, [(1R,2S,4R)-2-hydroxy-4-{[5-({4-[3-(methylsulfanyl)benzyl]-2-thienyl}carbonyl)pyrimidin-4-yl]amino}cyclopentyl]methyl sulfamate], the inhibition at 0.111 µM (Concentration 0.111 μM) amounted to 98%. Further, the IC50 (class symbols A/B/C) was less than 10 nM.

With `CCc1ccccc1OCc1csc(C(=O)c2cncnc2N[C@@H]2C[C@H](COS(N)(=O)=O)[C@@H](O)C2)c1` [I-182, [(1R,2S,4R)-4-{[5-({4-[(2-ethylphenoxy)methyl]-2-thienyl}carbonyl)pyrimidin-4-yl]amino}-2-hydroxycyclopentyl]methyl sulfamate], where the note is “Concentration 0.111 μM”, the inhibition at 0.111 µM amounted to 82%. The IC50 (class symbols A/B/C) was 10 to 100 nM.

With `NS(=O)(=O)OC[C@H]1C[C@@H](Nc2ncncc2C(=O)c2cc(Cc3cccc(Cl)c3)c(CO)s2)C[C@@H]1O` [I-35, {(1R,2S,4R)-4-[(5-{[4-(3-chlorobenzyl)-5-(hydroxymethyl)-2-thienyl]carbonyl}pyrimidin-4-yl)amino]-2-hydroxycyclopentyl}methyl sulfamate], the inhibition at 0.111 µM (Concentration 0.111 μM) turned out to be 98%. Besides, the IC50 (class symbols A/B/C) is less than 10 nM.

Turning to `NS(=O)(=O)OC[C@H]1C[C@@H](Nc2ncncc2C(=O)c2cc([C@@H]3OCCc4ccc(Br)cc43)cs2)C[C@@H]1O` (single isomer, unassigned) [I-268a, [(1R,2S,4R)-4-{[5-({4-[(1R)-7-bromo-3,4-dihydro-1H-isochromen-1-yl]-2-thienyl}carbonyl)pyrimidin-4-yl]amino}-2-hydroxycyclopentyl]methyl sulfamate or [(1R,2S,4R)-4-{[5-({4-[(1S)-7-bromo-3,4-dihydro-1H-isochromen-1-yl]-2-thienyl}carbonyl)pyrimidin-4-yl]amino}-2-hydroxycyclopentyl]methyl sulfamate], the “Percent Inhibition” value (Concentration 0.111 μM) is 50. For the same compound, the IC50 (class symbols A/B/C) lay within 100 to 1000 nM.

Take `CC(O)(c1cccc(Cl)c1)c1csc(C(=O)c2cncnc2NC2CC(O)C(COS(N)(=O)=O)C2)c1` (mixture of isomers) [I-5, [(1R,2S,4R)-4-{[5-({4-[(1R)-1-(3-chlorophenyl)-1-hydroxyethyl]-2-thienyl}carbonyl)pyrimidin-4-yl]amino}-2-hydroxycyclopentyl]methyl sulfamate and [(1R,2S,4R)-4-{[5-({4-[(1S)-1-(3-chlorophenyl)-1-hydroxyethyl]-2-thienyl}carbonyl)pyrimidin-4-yl]amino}-2-hydroxycyclopentyl]methyl sulfamate]: the “Percent Inhibition” value (Concentration 0.111 μM) is on record as 99. Further, under “class symbols A/B/C”, the IC50 was less than 10 nM.

As to `Cc1sc(C(=O)c2cncnc2N[C@@H]2C[C@H](COS(N)(=O)=O)[C@@H](O)[C@H]2O)cc1[C@@H]1OCCc2ccccc21` (single isomer, unassigned) [I-250b, [(1R,2R,3S,4R)-4-{[5-({4-[(1R)-3,4-dihydro-1H-isochromen-1-yl]-5-methyl-2-thienyl}carbonyl)pyrimidin-4-yl]amino}-2,3-dihydroxycyclopentyl]methyl sulfamate or [(1R,2R,3S,4R)-4-{[5-({4-[(1S)-3,4-dihydro-1H-isochromen-1-yl]-5-methyl-2-thienyl}carbonyl)pyrimidin-4-yl]amino}-2,3-dihydroxycyclopentyl]methyl sulfamate], the “Percent Inhibition” value (Concentration 0.111 μM) is 98. The half-maximal inhibitory concentration (IC50) (class symbols A/B/C) is less than 10 nM.

Turning to `NS(=O)(=O)OCC1CC(Nc2ncncc2C(=O)c2cc(C(O)(c3cccc(Cl)c3)C3CC3)cs2)CC1O` (mixture of isomers) [I-50, [(1R,2S,4R)-4-{[5-({4-[(S)-(3-chlorophenyl)(cyclopropyl)hydroxymethyl]-2-thienyl}carbonyl)pyrimidin-4-yl]amino}-2-hydroxycyclopentyl]methyl sulfamate and [(1R,2S,4R)-4-{[5-({4-[(R)-(3-chlorophenyl)(cyclopropyl)hydroxymethyl]-2-thienyl}carbonyl)pyrimidin-4-yl]amino}-2-hydroxycyclopentyl]methyl sulfamate], where the note is “Concentration 0.111 μM”, the “Percent Inhibition” value was determined as 99. Where the note is “class symbols A/B/C”, the IC50 is less than 10 nM.

In the case of `NS(=O)(=O)OC[C@H]1C[C@@H](Nc2ncncc2C(=O)c2cc(Cc3ccccc3)c(Cc3ccccc3)s2)C[C@@H]1O` [I-144, [(1R,2S,4R)-4-({5-[(4,5-Dibenzyl-2-thienyl)carbonyl]pyrimidin-4-yl}amino)-2-hydroxycyclopentyl]methyl sulfamate], where the note is “Concentration 0.111 μM”, the inhibition at 0.111 µM came to 93%. Also, the IC50 (class symbols A/B/C) was less than 10 nM.

Consider “[(1R,2S,4R)-2-hydroxy-4-{[5-({4-[(1R)-2-methyl-2,3-dihydro-1H-isoindol-1-yl]-2-thienyl}carbonyl)pyrimidin-4-yl]amino}cyclopentyl]methyl sulfamate and [(1R,2S,4R)-2-hydroxy-4-{[5-({4-[(1S)-2-methyl-2,3-dihydro-1H-isoindol-1-yl]-2-thienyl}carbonyl)pyrimidin-4-yl]amino}cyclopentyl]methyl sulfamate [I-308]”, for which the “Percent Inhibition” value under setting [1] came to 98%. Further, the IC50 under setting [2] is less than 10 nM.

As to `Cc1sc(C(=O)c2cncnc2N[C@@H]2C[C@H](COS(N)(=O)=O)[C@@H](O)C2)cc1[C@@H]1OCCc2sc(C(F)(F)F)nc21` (mixture of isomers) [I-315, [(1R,2S,4R)-2-hydroxy-4-{[5-({5-methyl-4-[(4S)-2-(trifluoromethyl)-6,7-dihydro-4H-pyrano[3,4-d][1,3]thiazol-4-yl]-2-thienyl}carbonyl)pyrimidin-4-yl]amino}cyclopentyl]methyl sulfamate and [(1R,2S,4R)-2-hydroxy-4-{[5-({5-methyl-4-[(4R)-2-(trifluoromethyl)-6,7-dihydro-4H-pyrano[3,4-d][1,3]thiazol-4-yl]-2-thienyl}carbonyl)pyrimidin-4-yl]amino}cyclopentyl]methyl sulfamate], the “Percent Inhibition” value under setting [1] came out at 97%. Further, under setting [2], the IC50 was less than 10 nM.

As for `Cc1sc(C(=O)c2cncnc2N[C@@H]2C[C@H](COS(N)(=O)=O)[C@@H](O)[C@H]2O)cc1[C@@H]1NCCc2ccc(Br)cc21` (single isomer, unassigned) [I-247b, [(1R,2R,3S,4R)-4-{[5-({4-[(1R)-7-bromo-1,2,3,4-tetrahydroisoquinolin-1-yl]-5-methyl-2-thienyl}carbonyl)pyrimidin-4-yl]amino}-2,3-dihydroxycyclopentyl]methyl sulfamate or [(1R,2R,3S,4R)-4-{[5-({4-[(1S)-7-bromo-1,2,3,4-tetrahydroisoquinolin-1-yl]-5-methyl-2-thienyl}carbonyl)pyrimidin-4-yl]amino}-2,3-dihydroxycyclopentyl]methyl sulfamate], where the note is “Concentration 0.111 μM”, the “Percent Inhibition” value is given as 98. Moreover, the IC50 (class symbols A/B/C) was less than 10 nM.

Take `Cc1nc2c(s1)CCO[C@H]2c1cc(C(=O)c2cncnc2N[C@@H]2C[C@H](COS(N)(=O)=O)[C@@H](O)C2)sc1C` (single isomer, unassigned) [I-287a, [(1R,2S,4R)-2-hydroxy-4-{[5-({5-methyl-4-[(4S)-2-methyl-6,7-dihydro-4H-pyrano[3,4-d][1,3]thiazol-4-yl]-2-thienyl}carbonyl)pyrimidin-4-yl]amino}cyclopentyl]methyl sulfamate or [(1R,2S,4R)-2-hydroxy-4-{[5-({5-methyl-4-[(4R)-2-methyl-6,7-dihydro-4H-pyrano[3,4-d][1,3]thiazol-4-yl]-2-thienyl}carbonyl)pyrimidin-4-yl]amino}cyclopentyl]methyl sulfamate]: the “Percent Inhibition” value under setting [1] is reported as 9%. In addition, the IC50 under setting [2] was in the range of 100 to 1000 nM.

As to `NS(=O)(=O)OC[C@H]1C[C@@H](Nc2ncncc2C(=O)c2ccc([C@@H]3OCCCc4ccc(Cl)cc43)s2)C[C@@H]1O` (single isomer, unassigned) [I-343a, [(1R,2S,4R)-4-{[5-({5-[(1R)-8-chloro-1,3,4,5-tetrahydro-2-benzoxepin-1-yl]-2-thienyl}carbonyl)pyrimidin-4-yl]amino}-2-hydroxycyclopentyl]methyl sulfamate or [(1R,2S,4R)-4-{[5-({5-[(1S)-8-chloro-1,3,4,5-tetrahydro-2-benzoxepin-1-yl]-2-thienyl}carbonyl)pyrimidin-4-yl]amino}-2-hydroxycyclopentyl]methyl sulfamate], the “Percent Inhibition” value under setting [1] is 57%. Moreover, under setting [2], the half-inhibitory concentration (IC50) lay in the range of 10 to 100 nM.
